Measured values taken from US9556222B2, “A-ring epoxidized triterpenoid-based anti-inflammation modulators and methods of use thereof” (priority 2012, dated 2017).

What follows are compounds tested on IFNγ-induced NO production in RAW264.7 mouse macrophages (assay: Nitric oxide production and cell viability protocol used for TX64343 (RAW264.7, Griess, Cell Titer-Glo)). Settings: slightly different assay procedure: DMEM+10% FBS, 0-30 μM or 0-3 μM dose range, IFNγ 24 h.
Assay type: cell-based
Procedure: On the next day, cells were pre-treated with DMSO or drug (0-30 μM or 0-3 μM dose range) for 2 hours, and then treated with IFNγ for 24 hours. Nitric Oxide concentration in media was determined using the Griess reagent system (Promega). Cell viability was determined using Cell Titer-Glo (Promega). IC50 values were determined based on the suppression of IFNγ induced Nitric Oxide production.

Row | SMILES | IC50
1 | CNC(=O)CC[C@]12CCC(C)(C)C[C@H]1[C@H]1C(=O)C=C3[C@@]4(C)[C@H]5O[C@@]5(C#N)C(=O)C(C)(C)[C@@H]4CC[C@@]3(C)[C@]1(C)CC2 [TX64343] | 20.1 nM

What follows are compounds tested on IFNγ-induced NO production in RAW264.7 mouse macrophages (assay: Suppression of IFNγ-induced NO production in RAW264.7 (Griess, normalized to WST-1 viability)). Settings: RAW264.7, 2 h pre-treatment (0-200 nM dose range), IFNγ 24 h, normalized to cell viability.
Assay type: cell-based
Procedure: On the next day, cells were pre-treated with DMSO or drug (0-200 nM dose range) for 2 hours, and then treated with recombinant mouse IFNγ (R&D Systems) for 24 hours. Nitric Oxide concentration in media was determined using the Griess reagent system (Promega). Cell viability was determined using WST-1 reagent (Roche). IC50 values were determined based on the suppression of IFNγ induced Nitric Oxide production normalized to cell viability.

Row | SMILES | IC50
2 | CC1(C)CC[C@]2(C(=O)NCC(F)(F)F)CC[C@]3(C)[C@H](C(=O)C=C4[C@@]5(C)[C@H]6O[C@@]6(C#N)C(=O)C(C)(C)[C@@H]5CC[C@]43C)[C@@H]2C1 [TX63158] | 16 nM
3 | COC(=O)[C@]12CCC(C)(C)C[C@H]1[C@H]1C(=O)C[C@@H]3[C@@]4(C)[C@H]5O[C@@]5(C#N)C(=O)C(C)(C)[C@@H]4CC[C@@]3(C)[C@]1(C)CC2 [TX63210] | 44 nM
4 | CCNC(=O)[C@]12CCC(C)(C)C[C@H]1[C@H]1C(=O)C=C3[C@@]4(C)[C@H]5O[C@@]5(C#N)C(=O)C(C)(C)[C@@H]4CC[C@@]3(C)[C@]1(C)CC2 [TX63100] | 23 nM
5 | COC(=O)N[C@]12CCC(C)(C)C[C@H]1[C@H]1C(=O)C=C3[C@@]4(C)[C@H]5O[C@@]5(C#N)C(=O)C(C)(C)[C@@H]4CC[C@@]3(C)[C@]1(C)CC2 [TX63654] | 6.5 nM
6 | CC1(C)CC[C@]2(CO)CC[C@]3(C)[C@H](C(=O)C[C@@H]4[C@@]5(C)[C@H]6O[C@@]6(C#N)C(=O)C(C)(C)[C@@H]5CC[C@]43C)[C@@H]2C1 [TX63966] | 52 nM
7 | C[C@@H]1C(=O)[C@]2(C#N)O[C@@H]2[C@]2(C)C3=CC(=O)[C@@H]4[C@@H]5CC(C)(C)CC[C@]5(NC(=O)C(C)(F)F)CC[C@@]4(C)[C@]3(C)CC[C@@H]12 [TX63946] | 0.6 nM
8 | CC1(C)CC[C@]2(C#N)CC[C@]3(C)[C@H](C(=O)C[C@@H]4[C@@]5(C)[C@H]6O[C@@]6(C#N)C(=O)C(C)(C)[C@@H]5CC[C@]43C)[C@@H]2C1 [TX63967] | 24 nM
9 | Cc1nnc([C@]23CCC(C)(C)C[C@H]2[C@H]2C(=O)C=C4[C@@]5(C)[C@H]6O[C@@]6(C#N)C(=O)C(C)(C)[C@@H]5CC[C@@]4(C)[C@]2(C)CC3)o1 [TX63947] | 2.5 nM
10 | CC1(C)CC[C@]2(C(=O)O)CC[C@]3(C)[C@H](C(=O)C=C4[C@@]5(C)[C@H]6O[C@@]6(C#N)C(=O)C(C)(C)[C@@H]5CC[C@]43C)[C@@H]2C1 [TX63160] | 30 nM
11 | COC(=O)[C@]12CCC(C)(C)C[C@H]1[C@H]1C(=O)C=C3[C@]4(C)[C@@H](CC[C@@]3(C)[C@]1(C)CC2)C(C)(C)C(=O)[C@]1(C(N)=O)O[C@@H]14 [TX63315] | > 200 nM
12 | CCNC(=O)[C@]12CCC(C)(C)C[C@H]1[C@H]1C(=O)C=C3[C@@]4(C)[C@H]5O[C@@]5(C#N)C(=O)[C@@H](C)[C@@H]4CC[C@@]3(C)[C@]1(C)CC2 [TX63962] | 1.1 nM
13 | COC(=O)[C@]12CCC(C)(C)C[C@H]1[C@H]1C(=O)C=C3[C@@]4(C)[C@H]5O[C@@]5(C#N)C(=O)C(C)(C)[C@@H]4CC[C@@]3(C)[C@]1(C)CC2 [TX63098] | 2.3 nM
14 | COC(=O)[C@]12CCC(C)(C)C[C@H]1[C@H]1C(=O)C[C@@H]3[C@@]4(C)[C@H]5O[C@@]5(C#N)C(=O)[C@@H](C)[C@@H]4CC[C@@]3(C)[C@]1(C)CC2 [TX63813] | 6.6 nM
15 | CC1(C)CC[C@]2(C(=O)NCC(F)(F)F)CC[C@]3(C)[C@H](C(=O)C[C@@H]4[C@@]5(C)[C@H]6O[C@@]6(C#N)C(=O)C(C)(C)[C@@H]5CC[C@]43C)[C@@H]2C1 [TX63241] | > 200 nM
16 | COC(=O)[C@]12CCC(C)(C)C[C@H]1[C@H]1C(=O)C=C3[C@@]4(C)[C@H]5O[C@@]5(Br)C(=O)C(C)(C)[C@@H]4CC[C@@]3(C)[C@]1(C)CC2 [TX63392] | > 200 nM
17 | COC(=O)[C@]12CCC(C)(C)C[C@H]1[C@H]1C(=O)C=C3[C@]4(C)[C@@H](CC[C@@]3(C)[C@]1(C)CC2)C(C)(C)C(=O)[C@@]1(C#N)O[C@@H]41 [TX63212] | 1.6 nM
18 | COC(=O)[C@]12CCC(C)(C)C[C@H]1[C@H]1C(=O)C=C3[C@@]4(C)[C@H]5O[C@H]5C(=O)C(C)(C)[C@@H]4CC[C@@]3(C)[C@]1(C)CC2 [TX63211] | > 200 nM
19 | CC1(C)CC[C@]2(CO)CC[C@]3(C)[C@H](C(=O)C=C4[C@@]5(C)[C@H]6O[C@@]6(C#N)C(=O)C(C)(C)[C@@H]5CC[C@]43C)[C@@H]2C1 [TX63537] | 1.5 nM
20 | CC1(C)CC[C@]2(NC(=O)C(C)(F)F)CC[C@]3(C)[C@H](C(=O)C=C4[C@@]5(C)[C@H]6O[C@@]6(C#N)C(=O)C(C)(C)[C@@H]5CC[C@]43C)[C@@H]2C1 [TX63647] | 15 nM
21 | CN(C)C(=O)N[C@]12CCC(C)(C)C[C@H]1[C@H]1C(=O)C=C3[C@@]4(C)[C@H]5O[C@@]5(C#N)C(=O)C(C)(C)[C@@H]4CC[C@@]3(C)[C@]1(C)CC2 [TX63924] | 45 nM
22 | CC1(C)CC[C@]2(C(=O)n3ccnc3)CC[C@]3(C)[C@H](C(=O)C=C4[C@@]5(C)[C@H]6O[C@@]6(C#N)C(=O)C(C)(C)[C@@H]5CC[C@]43C)[C@@H]2C1 [TX63960] | 2.9 nM
23 | CC[C@]12CCC(C)(C)C[C@H]1[C@H]1C(=O)C=C3[C@@]4(C)[C@H]5O[C@@]5(C#N)C(=O)C(C)(C)[C@@H]4CC[C@@]3(C)[C@]1(C)CC2 [TX63539] | 14 nM
